Experimental data published in ChEMBL document CHEMBL5724914, “Linking interpersonal differences in gut microbiota composition and drug biotransformation activity” (2024).

Assays:
[1] = The drug is tested on Z-030 corresponding to mouse gut metagenome with ENA study accession number: PRJEB37062 and ENA sample accession number: ERS12561829 for biotransformation under anaerobic condition. The drug concentrations were measured over 9 timepoints collected between 0 and 24 hours of incubation by liquid-chromatography-coupled mass spectrometry (LC–MS); details: 2 µM
[2] = The drug is tested on Z-027 corresponding to metagenome with ENA study accession number: PRJEB37062 and ENA sample accession number: ERS12561826 for biotransformation under anaerobic condition. The drug concentrations were measured over 9 timepoints collected between 0 and 24 hours of incubation by liquid-chromatography-coupled mass spectrometry (LC–MS); details: 2 µM
[3] = The drug is tested on Z-020 corresponding to rabbit gut metagenome with ENA study accession number: PRJEB37062 and ENA sample accession number: ERS12561819 for biotransformation under anaerobic condition. The drug concentrations were measured over 9 timepoints collected between 0 and 24 hours of incubation by liquid-chromatography-coupled mass spectrometry (LC–MS); details: 2 µM
[4] = The drug is tested on Z-019 corresponding to rat gut metagenome with ENA study accession number: PRJEB37062 and ENA sample accession number: ERS12561818 for biotransformation under anaerobic condition. The drug concentrations were measured over 9 timepoints collected between 0 and 24 hours of incubation by liquid-chromatography-coupled mass spectrometry (LC–MS); details: 2 µM
[5] = The drug is tested on Z-007 corresponding to rat gut metagenome with ENA study accession number: PRJEB37062 and ENA sample accession number: ERS12561807 for biotransformation under anaerobic condition. The drug concentrations were measured over 9 timepoints collected between 0 and 24 hours of incubation by liquid-chromatography-coupled mass spectrometry (LC–MS); details: 2 µM
[6] = The drug is tested on Z-005 corresponding to metagenome with ENA study accession number: PRJEB37062 and ENA sample accession number: ERS12561805 for biotransformation under anaerobic condition. The drug concentrations were measured over 9 timepoints collected between 0 and 24 hours of incubation by liquid-chromatography-coupled mass spectrometry (LC–MS); details: 2 µM
[7] = The drug is tested on Z-002 corresponding to rabbit gut metagenome with ENA study accession number: PRJEB37062 and ENA sample accession number: ERS12561802 for biotransformation under anaerobic condition. The drug concentrations were measured over 9 timepoints collected between 0 and 24 hours of incubation by liquid-chromatography-coupled mass spectrometry (LC–MS); details: 2 µM
[8] = The drug is tested on Z-001 corresponding to mouse gut metagenome with ENA study accession number: PRJEB37062 and ENA sample accession number: ERS12561801 for biotransformation under anaerobic condition. The drug concentrations were measured over 9 timepoints collected between 0 and 24 hours of incubation by liquid-chromatography-coupled mass spectrometry (LC–MS); details: 2 µM
[9] = The drug is tested on WLS-098 corresponding to human gut metagenome with ENA study accession number: PRJEB37062 and ENA sample accession number: ERS12561754 for biotransformation under anaerobic condition. The drug concentrations were measured over 9 timepoints collected between 0 and 24 hours of incubation by liquid-chromatography-coupled mass spectrometry (LC–MS); details: 2 µM
[10] = The drug is tested on WLS-073 corresponding to human gut metagenome with ENA study accession number: PRJEB37062 and ENA sample accession number: ERS12561749 for biotransformation under anaerobic condition. The drug concentrations were measured over 9 timepoints collected between 0 and 24 hours of incubation by liquid-chromatography-coupled mass spectrometry (LC–MS); details: 2 µM
[11] = The drug is tested on WLS-069 corresponding to human gut metagenome with ENA study accession number: PRJEB37062 and ENA sample accession number: ERS12561748 for biotransformation under anaerobic condition. The drug concentrations were measured over 9 timepoints collected between 0 and 24 hours of incubation by liquid-chromatography-coupled mass spectrometry (LC–MS); details: 2 µM
[12] = The drug is tested on WLS-007 corresponding to human gut metagenome with ENA study accession number: PRJEB37062 and ENA sample accession number: ERS12561742 for biotransformation under anaerobic condition. The drug concentrations were measured over 9 timepoints collected between 0 and 24 hours of incubation by liquid-chromatography-coupled mass spectrometry (LC–MS); details: 2 µM
[13] = human gut metagenome, 24 h, 2 µM
[14] = human gut metagenome, 24 h, 2 µM; remark: listed apart in the source
[15] = human gut metagenome, 24 h, 2 µM; remark: listed apart in the source
[16] = human gut metagenome, 24 h, 2 µM; remark: listed apart in the source
[17] = human gut metagenome, 24 h, 2 µM; remark: listed apart in the source
[18] = human gut metagenome, 24 h, 2 µM; remark: listed apart in the source
[19] = human gut metagenome, 24 h, 2 µM; remark: listed apart in the source
[20] = human gut metagenome, 24 h, 2 µM; remark: listed apart in the source
Note: call rule not given here.

Structure (SMILES) | Bacterial Biotransformation [1] | Bacterial Biotransformation [2] | Bacterial Biotransformation [3] | Bacterial Biotransformation [4] | Bacterial Biotransformation [5] | Bacterial Biotransformation [6] | Bacterial Biotransformation [7] | Bacterial Biotransformation [8] | Bacterial Biotransformation [9] | Bacterial Biotransformation [10] | Bacterial Biotransformation [11] | Bacterial Biotransformation [12] | Bacterial Biotransformation [13] | Bacterial Biotransformation [14] | Bacterial Biotransformation [15] | Bacterial Biotransformation [16] | Bacterial Biotransformation [17] | Bacterial Biotransformation [18] | Bacterial Biotransformation [19] | Bacterial Biotransformation [20]
CCCC1O[C@@H]2C[C@H]3[C@@H]4CCC5=CC(=O)C=C[C@]5(C)[C@H]4[C@@H](O)C[C@]3(C)[C@]2(C(=O)CO)O1 (stereo not given in full) [BUDESONIDE] | Compound NOT metabolized | Compound NOT metabolized | Compound NOT metabolized | Compound NOT metabolized | Compound NOT metabolized | Compound metabolized | Compound metabolized | Compound NOT metabolized | Compound metabolized | Compound NOT metabolized | Compound metabolized | Compound metabolized | Compound metabolized | Compound metabolized | Compound metabolized | Compound metabolized | Compound metabolized | Compound metabolized | Compound NOT metabolized | Compound metabolized
CCN(CC)CCOCCOC(=O)C1(c2ccccc2)CCCC1.O=C(O)CC(O)(CC(=O)O)C(=O)O [CARBETAPENTANE CITRATE] | Compound NOT metabolized | Compound NOT metabolized | Compound metabolized | Compound NOT metabolized | Compound NOT metabolized | Compound metabolized | Compound metabolized | Compound NOT metabolized | Compound metabolized | Compound metabolized | Compound metabolized | Compound NOT metabolized | Compound metabolized | Compound NOT metabolized | Compound metabolized | Compound metabolized | Compound metabolized | Compound metabolized | Compound NOT metabolized | Compound metabolized
O=C(O)COCCN1CCN(C(c2ccccc2)c2ccc(Cl)cc2)CC1 (stereo not given) [CETIRIZINE] | Compound NOT metabolized | Compound NOT metabolized | Compound NOT metabolized | Compound NOT metabolized | Compound NOT metabolized | Compound metabolized | Compound metabolized | Compound NOT metabolized | Compound metabolized | Compound metabolized | Compound metabolized | Compound metabolized | Compound metabolized | Compound metabolized | Compound metabolized | Compound metabolized | Compound metabolized | Compound metabolized | Compound metabolized | Compound metabolized
